# Measurements from publication PMC11091889, “Silver Organometallics that are Highly Potent Thioredoxin and Glutathione Reductase Inhibitors: Exploring the Correlations of Solution Chemistry with the Strong Antibacterial Effects” (ACS Infectious Diseases, 2024).
# How the values were obtained:
# [1] = target: T1, glutathione reductase (GR) from baker's yeast (Saccharomyces cerevisiae, UniProt P41921); test: GR inhibition assay (DTNB reduction); format: biochemical; conditions: ± standard deviation, n = 3, 75 min preincubation
# T1 construct: purchased Sigma-Aldrich
# T1 sequence (P41921 17-483 limits assumed): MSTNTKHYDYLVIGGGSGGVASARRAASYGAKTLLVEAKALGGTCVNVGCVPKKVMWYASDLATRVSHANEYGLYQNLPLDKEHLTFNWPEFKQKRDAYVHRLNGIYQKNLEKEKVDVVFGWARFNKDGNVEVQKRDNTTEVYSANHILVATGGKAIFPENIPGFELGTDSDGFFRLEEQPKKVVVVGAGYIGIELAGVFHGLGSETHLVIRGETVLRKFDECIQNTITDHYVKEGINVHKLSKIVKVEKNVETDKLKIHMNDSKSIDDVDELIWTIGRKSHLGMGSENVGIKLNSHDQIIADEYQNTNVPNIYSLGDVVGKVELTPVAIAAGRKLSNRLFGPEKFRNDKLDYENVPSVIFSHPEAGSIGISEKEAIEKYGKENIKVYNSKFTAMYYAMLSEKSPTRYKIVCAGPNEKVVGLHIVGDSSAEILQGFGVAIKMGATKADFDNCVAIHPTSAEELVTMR
# Method: (§2) The inhibition of purified E. coli thioredoxin reductase (TrxR) and glutathione reductase (GR) from both E. coli and baker’s yeast was determined according to a previously applied procedure.[59],[60]
# (§3) The TrxR (E. coli) and GR (baker’s yeast and E. coli) inhibition assays were performed according to previously published procedures.[62],[75] The assays are partly based on the procedure developed by Lu et al.[60] and make use of the reduction of 5,5′-dithiobis(2-nitrobenzoic acid) (DTNB). Solutions of E. coli TrxR (35.4 U/mL) and E. coli thioredoxin (Trx) (156 μg/mL) (both purchased from Sigma-Aldrich) or baker’s yeast GR (0,08 U/mL, Sigma-Aldrich) or E. coli GR (4.2 U/ml, Antibodies online) and GSSG (0.28 mM, Sigma-Aldrich) in distilled water were prepared, as were fresh 2 mM stock solutions of the test compounds in DMSO. Then, solutions with several concentrations of the test compounds in DMSO were prepared, and 35 μL of each solution was diluted with 965 μL of TE buffer (Tris–HCl 50 mM, EDTA 1 mM, pH 7.5). These solutions (20 μL) or TE buffer without the test compounds (20 μL, as control) were mixed with the TrxR or GR solutions (10 μL), the Trx or GSSG solutions (10 μL), and a solution of NADPH (200 μM) in TE buffer (100 μL) in a well on a 96-well plate. As a blank solution, 200 μM NADPH in TE buffer (100 μL) mixed with a DMSO/buffer mixture (40 μL) was used (final concentrations of DMSO: 0.5% v/v). The plate was incubated for 75 min at 25 °C with moderate shaking. After incubation, 100 μL of a reaction mixture (TE buffer containing 200 μM NADPH and 5 mM DTNB) was added to each well to initiate the reaction. After thorough mixing, the formation of 5-TNB was monitored by a microplate reader at 405 nm in 35 s intervals (10 measurements). The values were corrected by subtraction of the blank solution absorption values. The increase in the concentration of 5-TNB followed a linear trend (r^2 ≥ 0.990), and the enzymatic activities were calculated as the gradients (increase in absorbance per second) thereof. […] The inhibition is presented as the mean IC50 values and standard deviations obtained in three independent experiments.
# [2] = system: E. coli (DSM1116, ATCC 9637); test: microbe, parasite or virus in culture; format: cell-based, Escherichia coli; conditions: for MIC E. coli DSM 1116 in MHB + tryptone: Müller-Hinton Broth with tryptone (17 g/L); for MIC E. coli DSM 1116 in MHB + tryptone / MIC E. coli DSM 1116 in MHB + yeast extract / MIC E. coli DSM 1116 in MHB: ± SE; for MIC E. coli DSM 1116 in MHB + yeast extract: Müller-Hinton Broth with yeast extract (3 g/L); for MIC E. coli DSM 1116 in MHB: Müller-Hinton Broth without additive; for EC50 / MIC E. coli: mean ± standard error; for EC50 / MIC E. coli / MIC E. coli (value in brackets): n = 3, MHB; for MIC E. coli / MIC E. coli (value in brackets): 22 h
# Outline: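 Escherichia coli DSM1116 (ATCC 9637) was tested by broth microdilution in 96-well plates in duplicate, with compounds serially diluted from 64 to 1 μg/mL. Inocula of 2–8 × 10^5 CFU/mL were used in MHB (21 g/L Müller Hinton broth, pH 7.4), either alone or supplemented with tryptone (17 g/L) or yeast extract (3 g/L). After 22 h at 37 °C, absorbance at 600 nm was read. MIC and EC50 were obtained by curve fitting in Sigma Plot from three independent experiments, and ciprofloxacin served as the positive control.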
# [3] = system: P. aeruginosa (PA 14) biofilm; test: Inhibition of biofilm formation, crystal violet staining; format: cell-based, Pseudomonas aeruginosa; conditions: for smallest active concentration for biofilm inhibition: concentration at which the % inhibition was found; for biofilm inhibition: ± SD, n = 4, at the respective smallest active concentration, 24 h
# Excerpt: Silver and its complexes can strongly affect the growth of biofilms.[56]−[58] In view of the promising activity against Gram-negative bacteria as mentioned above, we evaluated the inhibiting effect of the silver complexes on biofilm production by P. aeruginosa by a method based on crystal violet staining (Table 4 and Figure S14). Complexes 3a–c and 4a–c were selected for the test based on the results of solubility, stability, and antibacterial screening. […] The lower activity of 3c might be explained by its lower kinetic solubility in the aqueous environment (see Figure 4).
# The antibiofilm activity was determined according to a literature method.[73] A 1 mL aliquot of P. aeruginosa (PA 14) was taken from −20 °C stock, incubated in 25 mL LB medium (Luria–Bertani Broth) in a 250 mL flask, and kept at 37 °C at 100 rpm overnight. The optical density at 600 nm (OD600) of the culture solution was adjusted to match the turbidity of a 0.1 McFarland standard in M63 medium.[74] Selected compounds were mixed with 150 μL of bacterial solution in U-bottom 96 well plates to the final respective concentrations (25–0.2 μg/mL). The plates were further incubated at 37 °C for 24 h while shaking at 150 rpm. Afterward, the plates were rinsed once with 150 μL of PBS buffer, and the biofilms were stained using 150 μL of crystal violet (0.1%) staining at room temperature for 15 min and then rinsed once with PBS buffer. After rinsing, 150 μL of ethanol (95%) was added, and the absorbance was quantified using a plate reader (Synergy 2, BioTek, Santa Clara, USA) at 550 nm. The resulting antibiofilm activity is presented as percentage of inhibition at the respective smallest active concentration in μM with standard deviation (SD) of two repeats with duplicates. Myxovalargin A and DMSO (2.5%) were used as the positive and negative controls, respectively.
# [4] = target: E. coli thioredoxin reductase (TrxR) (Escherichia coli, UniProt P0A9P4); conditions: read-out: IC50 TrxR from E. coli; ± standard deviation, n = 3, 75 min preincubation
# Chain of E. coli thioredoxin reductase (TrxR) (P0A9P4 whole entry): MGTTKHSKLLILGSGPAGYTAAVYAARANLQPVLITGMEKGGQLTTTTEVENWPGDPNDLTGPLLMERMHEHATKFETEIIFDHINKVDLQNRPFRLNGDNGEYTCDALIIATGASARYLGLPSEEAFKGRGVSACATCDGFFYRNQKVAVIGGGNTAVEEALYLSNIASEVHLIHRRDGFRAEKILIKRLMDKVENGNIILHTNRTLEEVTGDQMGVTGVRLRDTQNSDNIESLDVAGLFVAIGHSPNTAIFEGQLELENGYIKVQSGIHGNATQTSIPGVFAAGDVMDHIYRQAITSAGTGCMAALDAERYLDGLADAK
# Method: as §2, §3
# [5] = system: E. faecium (DSM 20477, ATCC 19434); test: Broth microdilution antibacterial assay; format: cell-based, Enterococcus faecium; conditions: n = 3, TSY; for MIC E. faecium / EC50: mean ± standard error; for MIC E. faecium / MIC E. faecium (value in brackets): 22 h; for EC50: read-out: EC50 E. faecium
# Outline: (§1)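 Broth microdilution used 2–8 × 10^5 CFU/mL inocula, with compounds serially diluted 64 to 1 μg/mL and incubated 22 h at 37 °C, read at 600 nm. A. baumannii, K. pneumoniae and P. aeruginosa were grown in MHB pH 7.4; E. faecium was grown in TSY pH 7.0–7.2. MIC and EC50 were obtained by curve fitting from three independent experiments.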
# [6] = system: A. baumannii (DSM 30007, ATCC 19606); test: Broth microdilution antibacterial assay; format: cell-based, Acinetobacter baumannii; conditions: n = 3, MHB; for MIC A. baumannii / EC50: mean ± standard error; for MIC A. baumannii / MIC A. baumannii (value in brackets): 22 h; for EC50: read-out: EC50 A. baumannii
# Outline: as §1
Compound,IC50 [1] [nM],MIC E. coli DSM 1116 in MHB + tryptone [2] [µM],MIC E. coli DSM 1116 in MHB + yeast extract [2] [µM],MIC E. coli DSM 1116 in MHB [2] [µM],EC50 [2] [nM],MIC E. coli [2] [µM],MIC E. coli (value in brackets) [2] [µg/mL],smallest active concentration for biofilm inhibition [3] [µM],biofilm inhibition [3] [%],IC50 [4] [nM],MIC E. faecium [5] [µM],EC50 [5] [nM],MIC E. faecium (value in brackets) [5] [µg/mL],MIC A. baumannii [6] [µM],EC50 [6] [nM],MIC A. baumannii (value in brackets) [6] [µg/mL]
"CC(C)n1[c](=[Ag][Cl])n(Cc2ccccn2)c2ccccc21 [3a, Chlorido (1-Isopropyl-3-(pyridin-2-ylmethyl)-benzimidazol-2-ylidene) Silver(I)]",44 ± 4,162.2 ± 0.0,162.2 ± 0.0,40.5 ± 0.0,35300 ± 1100,40.5 ± 0.0,16,7.9,71 ± 4,103 ± 8,162 ± 0.0,139000 ± 400,64,13.5 ± 3.4,1800 ± 300,5
"CC(C)n1[c](=[Ag][Br])n(Cc2ccccn2)c2ccccc21 [3b, Bromido (1-Isopropyl-3-(pyridin-2-ylmethyl)-benzimidazol-2-ylidene) Silver(I)]",41 ± 6,145.7 ± 0.0,121.5 ± 24.3,36.4 ± 0.0,28700 ± 3600,36.4 ± 0.0,16,7.1,74 ± 5,92 ± 8,146 ± 0.0,123000 ± 400,64,15.2 ± 3.0,530 ± 140,7
"CC(C)n1[c](=[Ag][I])n(Cc2ccccn2)c2ccccc21 [3c, Iodido (1-Isopropyl-3-(pyridin-2-ylmethyl)-benzimidazol-2-ylidene) Silver(I)]",49 ± 4,54.9 ± 11.0,43.9 ± 11.0,11.0 ± 2.7,8800 ± 2500,11.0 ± 2.7,5,13.0,55 ± 19,122 ± 15,65.8 ± 0.0,60900 ± 100,32,4.11 ± 0.0,1900 ± 100,2
"COCCn1[c](=[Ag][I])n(Cc2ccccn2)c2ccccc21 [4c, Iodido (1-(2-Methoxyethyl)-3-(pyridin-2-ylmethyl)-benzimidazol-2-ylidene) Silver(I)]",,,,,14400 ± 2700,21.2 ± 5.3,11,6.2,66 ± 6,,> 128,> 128000,> 64,9.3 ± 3.5,1900 ± 100,5
